What was measured:
[1] = Antiproliferative activity against human SHEP cells after 72 hrs by Alamar blue/spectrophotometric analysis; type: functional, cell-based
[2] = test system: MDA-MB-231; experiment: Antiproliferative activity against human MDA-MB-231 cells after 72 hrs by Alamar blue/spectrophotometric analysis; type: functional, cell-based; settings: MDA-MB-231, 72 h
[3] = test system: RAW264.7; experiment: Antiinflammatory activity against mouse RAW264.7 cells assessed as reduction of LPS-induced IL6 production at 10 uM after 24 hrs by ELISA; type: functional; settings: RAW264.7, 24 h

| SMILES | IC50 [2] | IC50 [1] | inhibition at 10 µM [3] |
| --- | --- | --- | --- |
| CC(=O)CC1Oc2cc(O)ccc2C=C1c1ccc(O)cc1 (centres undefined) | 145 µM | 124 µM | > 50% |
| CC(C)CC(=O)CC1Oc2cc(O)ccc2C=C1c1ccc(O)cc1 (centres undefined) | 67 µM | 139 µM |  |
| O=C(CC1Oc2cc(O)ccc2C=C1c1ccc(O)cc1)c1ccccc1 (centres undefined) | 88 µM | 102 µM |  |
| Cc1ccc(C(=O)CC2Oc3cc(O)ccc3C=C2c2ccc(O)cc2)cc1 (centres undefined) | 55 µM | 60 µM |  |
| CCc1ccc(C(=O)CC2Oc3cc(O)ccc3C=C2c2ccc(O)cc2)cc1 (centres undefined) | 198 µM | 377 µM |  |
| O=C(CC1Oc2cc(O)ccc2C=C1c1ccc(O)cc1)c1ccc(Cl)cc1 (centres undefined) | 151 µM | 167 µM |  |
| O=C(CC1Oc2cc(O)ccc2C=C1c1ccc(O)cc1)c1cccc2ccccc12 (centres undefined) | 106 µM | 128 µM |  |

The next molecules have a lower IC50 [2] than those just listed; values first:

| IC50 [2] | SMILES | IC50 [1] | inhibition at 10 µM [3] |
| --- | --- | --- | --- |
| 7.6 µM | COc1ccc(C(=O)CC2Oc3cc(O)ccc3C=C2c2ccc(O)cc2)cc1 (centres undefined) | 37 µM | > 50% |
| 37 µM | O=C(CC1Oc2cc(O)ccc2C=C1c1ccc(O)cc1)c1ccc(Br)cc1 (centres undefined) | 33 µM |  |
| 36 µM | C/C(CC1Oc2cc(O)ccc2C=C1c1ccc(O)cc1)=N\Nc1ccc([N+](=O)[O-])cc1[N+](=O)[O-] (centres undefined) | 62 µM |  |
| 53 µM | Cc1cc(C2Oc3cc(O)ccc3C=C2c2ccc(O)cc2)cc(C)c1N (centres undefined) | 102 µM | > 50% |
| 39 µM | COc1ccc(C2=C(c3ccc(O)cc3)C(CC(C)=O)Oc3cc(O)ccc32)cc1 (centres undefined) | 69 µM |  |
| 33 µM | Oc1ccc(C2=Cc3ccc(O)cc3OC2)cc1 [IDRONOXIL] | 9.9 µM |  |
